Reference: publication PMC4254627 (Bioorganic & medicinal chemistry letters, 2014)
Entries after “also recorded” stand apart in the source; their conditions may differ.

Legend:
Stability = assay type: in vitro ADME, human; settings: 50% HP vs pH 7.4 buffer
[1] = Solubility / precipitation behaviour in pH 7.4 buffer; assay type: physicochemical

SMILES | reduction of half-life in HP compared to pH 7.4 PBS buffer (Stability) | solubility in pH 7.4 buffer [1]
NCCC(=O)O[C@@H]1CC[C@@]2(O)[C@H]3Cc4ccc(O)c5c4[C@@]2(CCN3CC2CC2)[C@H]1O5 [Prodrug 6e] | approximately 5.4 fold | 
CCC(C)[C@H](N)C(=O)O[C@@H]1CC[C@@]2(O)[C@H]3Cc4ccc(O)c5c4[C@@]2(CCN3CC2CC2)[C@H]1O5 (stereo partly drawn) [Prodrug 6d] |  | highly insoluble; also recorded: precipitate
CC(C)[C@H](N)C(=O)O[C@@H]1CC[C@@]2(O)[C@H]3Cc4ccc(O)c5c4[C@@]2(CCN3CC2CC2)[C@H]1O5 [Prodrug 6b] |  | precipitate
